Measurements: patent US7118895B2, “Process for producing aglycon by using diglycosidase and flavor-improved food containing the aglycon and converting agent to be used in the process” (Amano Enzyme Inc., priority 2000, dated 2006)
Blank lines part the entries; values can stand above or below the molecule they belong to.

System: Crude diglycosidase
Assay: Examination of substrate concentration in the conversion into isoflavone aglycons by diglycosidase using soybean materials;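 on Decomposition efficiency: ratio of each glycoside/aglycon within its isoflavone family: percent of the isoflavone family total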
Assay type: biochemical, Penicillium multicolor IAM7153
Protocol: Into 20 mM acetate buffer of pH 4.0 was suspended 0.1 g, 0.25 g, 0.5 g, 1.0 g, or 1.5 g of each of various soybean materials (roasted soy flour (manufactured by Fuji Shokuryo K.K.), soymilk (manufactured by Gitoh Shokuhin K.K.), defatted soybean (manufactured by Fuji Seiyu K.K.), concentrated soybean protein (manufactured by Fuji Seiyu K.K.)). The pH of the suspension was measured and the liquid volume was adjusted to 4.5 mL while the pH was adjusted to 4.0 with 1N hydrochloric acid. An enzyme solution wherein diglycosidase activity of crude diglycosidase was adjusted to 1.88 AU/mL was added thereto in an amount of 0.5 mL, whereby the final liquid volume was 5.0 mL. Namely, the ratio of the soybean material in the reaction mixture was 2%, 5%, 10%, 20%, or 30% (w/v). The whole was reacted at 55° C. under shaking. To 5 mL of the reaction mixture was added 7 mL of ethanol after 0, 1, 3, and 6 hours of the reaction. After ultrasonication, the mixture was thoroughly mixed. It was subjected to centrifugal separation at 2,000 rpm and room temperature for 5 minutes. Then, […] of the supernatant was placed in a 1.5 mL microtube and was subjected to centrifugal separation at 15,000 rpm and 4° C. for 10 minutes. The supernatant was filtered through a filter and each sample was suitably diluted by a factor of 1 to 6 depending on the substrate concentration. Fifty μL of the diluted solution was analyzed by HLPC (Tables 27 to 38).

Decomposition efficiency: ratio of each glycoside/aglycon within its isoflavone family (soymilk, substrate concentration 2%, heat treatment of enzyme no, reaction time 0 h): not detected
Decomposition efficiency: ratio of each glycoside/aglycon within its isoflavone family (soymilk, substrate concentration 2%, heat treatment of enzyme no, reaction time 1 h): not detected
Decomposition efficiency: ratio of each glycoside/aglycon within its isoflavone family (soymilk, substrate concentration 2%, heat treatment of enzyme no, reaction time 3 h): not detected
Decomposition efficiency: ratio of each glycoside/aglycon within its isoflavone family (soymilk, substrate concentration 2%, heat treatment of enzyme no, reaction time 6 h): not detected
Decomposition efficiency: ratio of each glycoside/aglycon within its isoflavone family (soymilk, substrate concentration 2%, heat treatment of enzyme yes, reaction time 6 h): not detected
Decomposition efficiency: ratio of each glycoside/aglycon within its isoflavone family (soymilk, substrate concentration 5%, heat treatment of enzyme no, reaction time 0 h): not detected
Decomposition efficiency: ratio of each glycoside/aglycon within its isoflavone family (soymilk, substrate concentration 5%, heat treatment of enzyme no, reaction time 1 h): not detected
Decomposition efficiency: ratio of each glycoside/aglycon within its isoflavone family (soymilk, substrate concentration 5%, heat treatment of enzyme no, reaction time 3 h): not detected
Decomposition efficiency: ratio of each glycoside/aglycon within its isoflavone family (soymilk, substrate concentration 5%, heat treatment of enzyme no, reaction time 6 h): not detected
Decomposition efficiency: ratio of each glycoside/aglycon within its isoflavone family (soymilk, substrate concentration 5%, heat treatment of enzyme yes, reaction time 6 h): not detected
Decomposition efficiency: ratio of each glycoside/aglycon within its isoflavone family (soymilk, substrate concentration 10%, heat treatment of enzyme no, reaction time 0 h): not detected
Decomposition efficiency: ratio of each glycoside/aglycon within its isoflavone family (soymilk, substrate concentration 10%, heat treatment of enzyme no, reaction time 1 h): not detected
Decomposition efficiency: ratio of each glycoside/aglycon within its isoflavone family (soymilk, substrate concentration 10%, heat treatment of enzyme no, reaction time 3 h): not detected
Decomposition efficiency: ratio of each glycoside/aglycon within its isoflavone family (soymilk, substrate concentration 10%, heat treatment of enzyme no, reaction time 6 h): not detected
Decomposition efficiency: ratio of each glycoside/aglycon within its isoflavone family (soymilk, substrate concentration 10%, heat treatment of enzyme yes, reaction time 6 h): not detected
Decomposition efficiency: ratio of each glycoside/aglycon within its isoflavone family (soymilk, substrate concentration 20%, heat treatment of enzyme no, reaction time 0 h): not detected
Decomposition efficiency: ratio of each glycoside/aglycon within its isoflavone family (soymilk, substrate concentration 20%, heat treatment of enzyme no, reaction time 1 h): not detected
Decomposition efficiency: ratio of each glycoside/aglycon within its isoflavone family (soymilk, substrate concentration 20%, heat treatment of enzyme no, reaction time 3 h): not detected
Decomposition efficiency: ratio of each glycoside/aglycon within its isoflavone family (soymilk, substrate concentration 20%, heat treatment of enzyme no, reaction time 6 h): not detected
Decomposition efficiency: ratio of each glycoside/aglycon within its isoflavone family (soymilk, substrate concentration 20%, heat treatment of enzyme yes, reaction time 6 h): not detected
Decomposition efficiency: ratio of each glycoside/aglycon within its isoflavone family (soymilk, substrate concentration 30%, heat treatment of enzyme no, reaction time 0 h): not detected
Decomposition efficiency: ratio of each glycoside/aglycon within its isoflavone family (soymilk, substrate concentration 30%, heat treatment of enzyme no, reaction time 1 h): not detected
Decomposition efficiency: ratio of each glycoside/aglycon within its isoflavone family (soymilk, substrate concentration 30%, heat treatment of enzyme no, reaction time 3 h): not detected
Decomposition efficiency: ratio of each glycoside/aglycon within its isoflavone family (soymilk, substrate concentration 30%, heat treatment of enzyme no, reaction time 6 h): not detected
Decomposition efficiency: ratio of each glycoside/aglycon within its isoflavone family (soymilk, substrate concentration 30%, heat treatment of enzyme yes, reaction time 6 h): not detected
SMILES: COc1cc2c(=O)c(-c3ccc(O)cc3)coc2cc1O[C@@H]1O[C@H](COC(C)=O)[C@@H](O)[C@H](O)[C@H]1O [acetyl-glycitin]

SMILES: O=c1c(-c2ccc(O)cc2)coc2cc(O[C@@H]3O[C@H](CO)[C@@H](O)[C@H](O)[C@H]3O)ccc12 [diadzin]
Decomposition efficiency: ratio of each glycoside/aglycon within its isoflavone family (concentrated soybean protein, substrate concentration 2%, heat treatment of enzyme no, reaction time 0 h): 52.8%
Decomposition efficiency: ratio of each glycoside/aglycon within its isoflavone family (concentrated soybean protein, substrate concentration 2%, heat treatment of enzyme no, reaction time 1 h): not detected
Decomposition efficiency: ratio of each glycoside/aglycon within its isoflavone family (concentrated soybean protein, substrate concentration 2%, heat treatment of enzyme no, reaction time 3 h): not detected
Decomposition efficiency: ratio of each glycoside/aglycon within its isoflavone family (concentrated soybean protein, substrate concentration 2%, heat treatment of enzyme no, reaction time 6 h): not detected
Decomposition efficiency: ratio of each glycoside/aglycon within its isoflavone family (concentrated soybean protein, substrate concentration 2%, heat treatment of enzyme yes, reaction time 6 h): 52.6%
Decomposition efficiency: ratio of each glycoside/aglycon within its isoflavone family (concentrated soybean protein, substrate concentration 5%, heat treatment of enzyme no, reaction time 0 h): 53.0%
Decomposition efficiency: ratio of each glycoside/aglycon within its isoflavone family (concentrated soybean protein, substrate concentration 5%, heat treatment of enzyme no, reaction time 1 h): not detected
Decomposition efficiency: ratio of each glycoside/aglycon within its isoflavone family (concentrated soybean protein, substrate concentration 5%, heat treatment of enzyme no, reaction time 3 h): not detected
Decomposition efficiency: ratio of each glycoside/aglycon within its isoflavone family (concentrated soybean protein, substrate concentration 5%, heat treatment of enzyme no, reaction time 6 h): not detected
Decomposition efficiency: ratio of each glycoside/aglycon within its isoflavone family (concentrated soybean protein, substrate concentration 5%, heat treatment of enzyme yes, reaction time 6 h): 53.5%
Decomposition efficiency: ratio of each glycoside/aglycon within its isoflavone family (concentrated soybean protein, substrate concentration 10%, heat treatment of enzyme no, reaction time 0 h): 52.8%
Decomposition efficiency: ratio of each glycoside/aglycon within its isoflavone family (concentrated soybean protein, substrate concentration 10%, heat treatment of enzyme no, reaction time 1 h): 2.2%
Decomposition efficiency: ratio of each glycoside/aglycon within its isoflavone family (concentrated soybean protein, substrate concentration 10%, heat treatment of enzyme no, reaction time 3 h): not detected
Decomposition efficiency: ratio of each glycoside/aglycon within its isoflavone family (concentrated soybean protein, substrate concentration 10%, heat treatment of enzyme no, reaction time 6 h): not detected
Decomposition efficiency: ratio of each glycoside/aglycon within its isoflavone family (concentrated soybean protein, substrate concentration 10%, heat treatment of enzyme yes, reaction time 6 h): 53.3%
Decomposition efficiency: ratio of each glycoside/aglycon within its isoflavone family (concentrated soybean protein, substrate concentration 20%, heat treatment of enzyme no, reaction time 0 h): 52.9%
Decomposition efficiency: ratio of each glycoside/aglycon within its isoflavone family (concentrated soybean protein, substrate concentration 20%, heat treatment of enzyme no, reaction time 1 h): 0.7%
Decomposition efficiency: ratio of each glycoside/aglycon within its isoflavone family (concentrated soybean protein, substrate concentration 20%, heat treatment of enzyme no, reaction time 3 h): not detected
Decomposition efficiency: ratio of each glycoside/aglycon within its isoflavone family (concentrated soybean protein, substrate concentration 20%, heat treatment of enzyme no, reaction time 6 h): not detected
Decomposition efficiency: ratio of each glycoside/aglycon within its isoflavone family (concentrated soybean protein, substrate concentration 20%, heat treatment of enzyme yes, reaction time 6 h): 52.8%
Decomposition efficiency: ratio of each glycoside/aglycon within its isoflavone family (concentrated soybean protein, substrate concentration 30%, heat treatment of enzyme no, reaction time 0 h): 49.2%
Decomposition efficiency: ratio of each glycoside/aglycon within its isoflavone family (concentrated soybean protein, substrate concentration 30%, heat treatment of enzyme no, reaction time 1 h): 2.7%
Decomposition efficiency: ratio of each glycoside/aglycon within its isoflavone family (concentrated soybean protein, substrate concentration 30%, heat treatment of enzyme no, reaction time 3 h): not detected
Decomposition efficiency: ratio of each glycoside/aglycon within its isoflavone family (concentrated soybean protein, substrate concentration 30%, heat treatment of enzyme no, reaction time 6 h): not detected
Decomposition efficiency: ratio of each glycoside/aglycon within its isoflavone family (concentrated soybean protein, substrate concentration 30%, heat treatment of enzyme yes, reaction time 6 h): 49.8%

Decomposition efficiency of genistin family in defatted soybean (substrate concentration 2%, heat treatment of enzyme no, reaction time 0 h): 37.7
Decomposition efficiency of genistin family in defatted soybean (substrate concentration 2%, heat treatment of enzyme no, reaction time 1 h): not detected
Decomposition efficiency of genistin family in defatted soybean (substrate concentration 2%, heat treatment of enzyme no, reaction time 3 h): not detected
Decomposition efficiency of genistin family in defatted soybean (substrate concentration 2%, heat treatment of enzyme no, reaction time 6 h): not detected
Decomposition efficiency of genistin family in defatted soybean (substrate concentration 2%, heat treatment of enzyme yes, reaction time 6 h): 38.7
Decomposition efficiency of genistin family in defatted soybean (substrate concentration 5%, heat treatment of enzyme no, reaction time 0 h): 40.0
Decomposition efficiency of genistin family in defatted soybean (substrate concentration 5%, heat treatment of enzyme no, reaction time 1 h): not detected
Decomposition efficiency of genistin family in defatted soybean (substrate concentration 5%, heat treatment of enzyme no, reaction time 3 h): not detected
Decomposition efficiency of genistin family in defatted soybean (substrate concentration 5%, heat treatment of enzyme no, reaction time 6 h): not detected
Decomposition efficiency of genistin family in defatted soybean (substrate concentration 5%, heat treatment of enzyme yes, reaction time 6 h): 41.8
Decomposition efficiency of genistin family in defatted soybean (substrate concentration 10%, heat treatment of enzyme no, reaction time 0 h): 42.4
Decomposition efficiency of genistin family in defatted soybean (substrate concentration 10%, heat treatment of enzyme no, reaction time 1 h): not detected
Decomposition efficiency of genistin family in defatted soybean (substrate concentration 10%, heat treatment of enzyme no, reaction time 3 h): not detected
Decomposition efficiency of genistin family in defatted soybean (substrate concentration 10%, heat treatment of enzyme no, reaction time 6 h): not detected
Decomposition efficiency of genistin family in defatted soybean (substrate concentration 10%, heat treatment of enzyme yes, reaction time 6 h): 44.3
SMILES: O=c1c(-c2ccc(O)cc2)coc2cc(O[C@@H]3O[C@H](CO)[C@@H](O)[C@H](O)[C@H]3O)cc(O)c12 [genisitin]
